Here are results for four compounds from patent publication US20240067693A1, “POLYPEPTIDES AND USES THEREOF” (MEDIMMUNE LIMITED, priority 2020, published 2024).

Series [1] concerns the target T1, human amylin receptor (calcitonin receptor co-expressed with receptor activity modifying protein, RAMP3) (hAMYR3) (Homo sapiens, UniProt O60896+P30988).
T1 construct: expressed in transfected cells
T1 sequence (P30988 25-474): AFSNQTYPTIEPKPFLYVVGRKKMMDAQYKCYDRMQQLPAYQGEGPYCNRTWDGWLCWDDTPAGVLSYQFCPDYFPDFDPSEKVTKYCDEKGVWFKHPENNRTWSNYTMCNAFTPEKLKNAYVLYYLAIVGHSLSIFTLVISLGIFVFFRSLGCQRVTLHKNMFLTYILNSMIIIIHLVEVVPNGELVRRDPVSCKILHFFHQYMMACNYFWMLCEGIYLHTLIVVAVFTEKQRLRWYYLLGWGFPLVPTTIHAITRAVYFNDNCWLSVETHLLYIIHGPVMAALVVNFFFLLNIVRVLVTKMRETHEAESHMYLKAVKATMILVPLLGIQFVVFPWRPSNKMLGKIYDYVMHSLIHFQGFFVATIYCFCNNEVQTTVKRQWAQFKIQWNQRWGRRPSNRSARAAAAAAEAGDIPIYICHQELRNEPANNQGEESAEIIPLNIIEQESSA
T1 sequence (O60896 24-148 partner): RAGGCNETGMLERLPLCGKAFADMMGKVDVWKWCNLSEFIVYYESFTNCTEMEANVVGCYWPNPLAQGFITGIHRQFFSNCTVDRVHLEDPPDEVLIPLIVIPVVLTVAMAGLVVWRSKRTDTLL
The series can be described thus: cAMP production in 1321N1 cells with stable recombinant expression of human amylin receptor (hAMYR3). As to conditions: for Ratio (selectivity hAMYR vs hCTR, ratio of EC50 values at the two receptors): EC50 hCTR / EC50 hAMYR3; for EC50: cAMP, 1321N1 cells, assay buffer with 0.1% BSA, read-out: EC50 (pM) hAMYR3. The class given is cell-based. The essentials: (§1)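 Receptor-expressing cells (human receptors in 1321N1, rat receptors in HEK) incubated 30 min at room temperature with peptide in HBSS/HEPES pH 7.4, 0.1% BSA, 0.5 mM IBMX. cAMP read by HTRF; EC50 from 4-parameter fit as % of maximal amylin or calcitonin response.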
In general terms: cAMP levels reflect the balance of adenylyl cyclase and phosphodiesterase activity.

For series [2], the target named is T2, human calcitonin receptor (hCTR) (Homo sapiens, UniProt P30988).
T2 construct: expressed in transfected cells
T2 sequence (P30988 25-474): T1 sequence (P30988 25-474)
The series can be described thus: cAMP production in 1321N1 cells with stable recombinant expression of human calcitonin receptor (hCTR). In kind it is cell-based. The following applies: cAMP, 1321N1 cells, assay buffer with 0.1% BSA; read-out: EC50 (pM) hCTR. The gist of the method: as §1

The nature of series [3]: Thioflavin T fibrillation assay. The class given is physicochemical. The following applies: for Time taken to detect increase in fluorescence intensity: ThT fibrillation assay, peptide 1 mg/mL in 25 mM sodium acetate buffer pH 4.0, 6 days at 37 °C with shaking, >144 h = no increase. The essentials:
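Peptides at 1 mg/mL in 25 mM sodium acetate pH 4.0 with ThT (from 0.25 mM stock), incubated 6 days at 37 °C with intermittent orbital shaking at 500–750 rpm. Fluorescence (ex 444/em 480 nm) read every 30 min; value is average time to a rise in baseline-corrected signal.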

A further series concerns lean rats. In words: Rat acute food intake study. The class given is in vivo. The following applies: lean male Sprague Dawley rats, 20 nmol/kg subcutaneously. The essentials: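 Male Sprague Dawley rats (n=7/group), fasted 6 h, received 20 nmol/kg test compound or 60 nmol/kg pramlintide subcutaneously 30 min before food return at dark onset. Food intake recorded automatically in home cages over 3 days, binned hourly and analysed as cumulative dark-period intake; body weight taken daily.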

Molecules are shown by their SMILES. Numbered stars: 1 amine (or outer) side, 2 acyl side, 3 side chain; on linkers, the order of the positions; unused ones are H or OH. Bridge positions count the residues as written; N and C are the ends. Square brackets hold non-standard residues; d marks the D form. Side chains are listed from the residue outwards. Peptide text beside a SMILES is read from it. * marks the point of attachment. C18 diacid = O=C(O)CCCCCCCCCCCCCCCCC(=O)*; γGlu = O=C(O)[C@H](CCC(=O)[*:2])N[*:1]; αMeF = C[C@](N)(Cc1ccccc1)C(=O)O; Aib = CC(C)(N)C(=O)O

As usually defined, the EC50 is the midpoint of the concentration-response curve. For the compound `CC[C@H](C)[C@H](NC(=O)[C@@H]1CCCN1C(=O)CNC(=O)[C@H](Cc1ccccc1)NC(=O)[C@H](CC(N)=O)NC(=O)[C@H](CC(N)=O)NC(=O)[C@H](CO)NC(=O)[C@H](CO)NC(=O)[C@H](Cc1c[nH]cn1)NC(=O)[C@@H](NC(=O)[C@H](CC(C)C)NC(=O)[C@H](Cc1ccccc1)NC(=O)[C@H](CC(N)=O)NC(=O)[C@H](C)NC(=O)[C@H](CC(C)C)NC(=O)[C@H](CCCNC(=N)N)NC(=O)[C@H](CCC(N)=O)NC(=O)[C@@H](NC(=O)[C@H](C)NC(=O)[C@@H]1CSSC[C@H](NC(=O)[C@H](CCCCN)NC(=O)CC[C@H](NC(=O)CCCCCCCCCCCCCCCCC(=O)O)C(=O)O)C(=O)N[C@@H](CC(N)=O)C(=O)N[C@@H]([C@@H](C)O)C(=O)N[C@@H](C)C(=O)N[C@@H]([C@@H](C)O)C(=O)N1)[C@@H](C)O)C(C)C)C(=O)N[C@@H](CC(C)C)C(=O)N1CCC[C@H]1C(=O)N1CCC[C@H]1C(=O)N[C@H](C(=O)N[C@@H](CC(N)=O)C(=O)N[C@H](C(=O)NCC(=O)N[C@@H](CO)C(=O)N[C@@H](CC(N)=O)C(=O)N[C@H](C(=O)N[C@@H](Cc1ccc(O)cc1)C(N)=O)[C@@H](C)O)C(C)C)[C@@H](C)O` [Peptide 3] ({C18 diacid-γGlu}-KCNTATCATQRLANFLVHSSNNFGPILPPTNVGSNTY-NH2; disulfide 2-7), in series [1], the “Ratio (selectivity hAMYR vs hCTR, ratio of EC50 values at the two receptors)” value is recorded as 5 and the concentration for a half-maximal effect (EC50) came to 246 pM. Besides, the EC50 in series [2] amounted to 1350 pM. For the same compound, the fibril-forming tendency entry in series [3] (ThT assay, 1 mg/mL, pH 4.0, 37 °C, compared to pramlintide) is given as “increases the fibril-forming tendency”. Also, the “Time taken to detect increase in fluorescence intensity” value (from here on “Time taken to detect increase”) in series [3] is less than 5 h. For the same compound, in the series on lean rats, the “Cummulative food intake (% vehicle treated intake) At 12 h” value was 13.4 % vehicle treated intake, the “Cummulative food intake (% vehicle treated intake) At 24 h” value was 14.4 % vehicle treated intake and the “Cummulative food intake (% vehicle treated intake) At 48 h” value came to 30.3 % vehicle treated intake.

Take `CC[C@H](C)[C@H](NC(=O)[C@H](C)NC(=O)[C@@H]1CCCN1C(=O)[C@H](Cc1ccccc1)NC(=O)[C@H](CC(N)=O)NC(=O)C(C)(C)NC(=O)[C@H](CO)NC(=O)[C@H](CO)NC(=O)[C@H](Cc1c[nH]cn1)NC(=O)[C@@H](NC(=O)[C@H](CC(C)C)NC(=O)[C@H](Cc1ccccc1)NC(=O)[C@H](CC(N)=O)NC(=O)[C@H](C)NC(=O)[C@H](CC(C)C)NC(=O)[C@H](CCCNC(=N)N)NC(=O)[C@H](CCC(N)=O)NC(=O)[C@@H](NC(=O)[C@H](C)NC(=O)[C@@H]1CSSC[C@H](NC(=O)[C@@H](N)CCCCNC(=O)CC[C@H](NC(=O)CC[C@H](NC(=O)CCCCCCCCCCCCCCCCC(=O)O)C(=O)O)C(=O)O)C(=O)N[C@@H](CC(N)=O)C(=O)N[C@@H]([C@@H](C)O)C(=O)N[C@@H](C)C(=O)N[C@@H]([C@@H](C)O)C(=O)N1)[C@@H](C)O)C(C)C)C(=O)N[C@@H](CC(C)C)C(=O)N[C@@H](CO)C(=O)N1CCC[C@H]1C(=O)N[C@H](C(=O)N[C@@H](CC(N)=O)C(=O)N[C@H](C(=O)NCC(=O)N[C@@H](CO)C(=O)N[C@@H](CC(N)=O)C(=O)N[C@H](C(=O)N[C@@H](Cc1ccc(O)cc1)C(N)=O)[C@@H](C)O)C(C)C)[C@@H](C)O` [Peptide 9, K(γE-γE-C18diacid)[CNTATC]ATQRLANFLVHSS(Aib)NFPAILSPTNVGSNTY-amide] (H-K([γGlu-γGlu-C18 diacid])CNTATCATQRLANFLVHSS[Aib]NFPAILSPTNVGSNTY-NH2; disulfide 2-7): in series [1], the “Ratio (selectivity hAMYR vs hCTR, ratio of EC50 values at the two receptors)” value turned out to be 42 and the EC50 turned out to be 320 pM. The EC50 in series [2] amounted to 13500 pM. In series [3], the “Time taken to detect increase” value is listed as 7 h. Further, in the series with lean rats, the “Cummulative food intake (% vehicle treated intake) At 12 h” value turned out to be 21.9 % vehicle treated intake, the “Cummulative food intake (% vehicle treated intake) At 24 h” value was determined as 30.8 % vehicle treated intake and the “Cummulative food intake (% vehicle treated intake) At 48 h” value turned out to be 56.5 % vehicle treated intake.

`CC[C@H](C)[C@H](NC(=O)[C@@H]1CCCN1C(=O)CNC(=O)[C@H](Cc1ccccc1)NC(=O)[C@H](CC(N)=O)NC(=O)C(C)(C)NC(=O)[C@H](CO)NC(=O)[C@H](CO)NC(=O)[C@H](Cc1c[nH]cn1)NC(=O)[C@H](CCCNC(=N)N)NC(=O)[C@H](CC(C)C)NC(=O)[C@H](Cc1ccccc1)NC(=O)[C@H](CC(N)=O)NC(=O)[C@H](C)NC(=O)[C@H](CC(C)C)NC(=O)[C@H](CCCNC(=N)N)NC(=O)[C@H](CCC(N)=O)NC(=O)[C@@H](NC(=O)[C@H](C)NC(=O)[C@@H]1CSSC[C@H](NC(=O)[C@@H](N)CCCCNC(=O)CC[C@H](NC(=O)CCCCCCCCCCCCCCCCC(=O)O)C(=O)O)C(=O)N[C@@H](CC(N)=O)C(=O)N[C@@H]([C@@H](C)O)C(=O)N[C@@H](C)C(=O)N[C@@H]([C@@H](C)O)C(=O)N1)[C@@H](C)O)C(=O)N[C@@H](CC(C)C)C(=O)N1CCC[C@H]1C(=O)N1CCC[C@H]1C(=O)N[C@H](C(=O)N[C@@H](CC(N)=O)C(=O)N[C@H](C(=O)NCC(=O)N[C@@H](CO)C(=O)N[C@@H](CC(N)=O)C(=O)N[C@H](C(=O)N[C@@H](Cc1ccc(O)cc1)C(N)=O)[C@@H](C)O)C(C)C)[C@@H](C)O` [Peptide 48, K(γE-C18diacid)[CNTATC]ATQRLANFLRHSS(Aib)NFGPILPPTNVGSNTY-amide] (H-K([γGlu-C18 diacid])CNTATCATQRLANFLRHSS[Aib]NFGPILPPTNVGSNTY-NH2; disulfide 2-7; N-terminus assumed): in series [1], the “Ratio (selectivity hAMYR vs hCTR, ratio of EC50 values at the two receptors)” value was 42 and the half-maximal effective concentration (EC50) is 126 pM. In series [2], the 50% effective concentration (EC50) turned out to be 5270 pM. The “Time taken to detect increase” value in series [3] was more than 144 h. Moreover, in the series on lean rats, the “Cummulative food intake (% vehicle treated intake) At 12 h” value is reported as 27.5 % vehicle treated intake, the “Cummulative food intake (% vehicle treated intake) At 24 h” value is listed as 32.6 % vehicle treated intake and the “Cummulative food intake (% vehicle treated intake) At 48 h” value is 57.1 % vehicle treated intake.

Regarding `CC[C@H](C)[C@H](NC(=O)[C@@H]1CCCN1C(=O)CNC(=O)[C@](C)(Cc1ccccc1)NC(=O)[C@H](CC(N)=O)NC(=O)[C@H](CC(N)=O)NC(=O)[C@H](CO)NC(=O)[C@H](CO)NC(=O)[C@H](Cc1c[nH]cn1)NC(=O)[C@H](CCCNC(=N)N)NC(=O)[C@H](CC(C)C)NC(=O)[C@H](Cc1ccccc1)NC(=O)[C@H](CC(N)=O)NC(=O)[C@H](C)NC(=O)[C@H](CC(C)C)NC(=O)[C@H](CCCNC(=N)N)NC(=O)[C@H](CCC(N)=O)NC(=O)[C@@H](NC(=O)[C@H](C)NC(=O)[C@@H]1CSSC[C@H](NC(=O)[C@H](CCCCN)NC(=O)[C@@H](N)CCCCNC(=O)CC[C@H](NC(=O)CCCCCCCCCCCCCCCCC(=O)O)C(=O)O)C(=O)N[C@@H](CC(N)=O)C(=O)N[C@@H]([C@@H](C)O)C(=O)N[C@@H](C)C(=O)N[C@@H]([C@@H](C)O)C(=O)N1)[C@@H](C)O)C(=O)N[C@@H](CC(C)C)C(=O)N1CCC[C@H]1C(=O)N1CCC[C@H]1C(=O)N[C@H](C(=O)N[C@@H](CCC(=O)O)C(=O)N[C@H](C(=O)NCC(=O)N[C@@H](CO)C(=O)N[C@@H](CC(N)=O)C(=O)N[C@H](C(=O)N[C@@H](Cc1ccc(O)cc1)C(N)=O)[C@@H](C)O)C(C)C)[C@@H](C)O` [Peptide 15, K(γE-C18diacid)K[CNTATC]ATQRLANFLRHSSNN(αMePhe)GPILPPTEVGSNTY-amide] (H-K([γGlu-C18 diacid])KCNTATCATQRLANFLRHSSNN[αMeF]GPILPPTEVGSNTY-NH2; disulfide 3-8; N-terminus assumed), in series [1], the “Ratio (selectivity hAMYR vs hCTR, ratio of EC50 values at the two receptors)” value came to 10 and the concentration giving a half-maximal response (EC50) amounted to 522 pM. In addition, in series [2], the EC50 was 5460 pM. In series [3], the “Time taken to detect increase” value was more than 144 h. For the same compound, in the series on lean rats, the “Cummulative food intake (% vehicle treated intake) At 12 h” value is listed as 45.2 % vehicle treated intake, the “Cummulative food intake (% vehicle treated intake) At 24 h” value was determined as 49.1 % vehicle treated intake and the “Cummulative food intake (% vehicle treated intake) At 48 h” value is 51 % vehicle treated intake.
